{"source": "patent US6100073A", "about": "“Acid-stable and thermo-stable enzymes derived from sulfolobus species” (Genencor International, Inc., priority 1994, dated 2000)", "target": "enzyme having α-1,4 hydrolytic activity derived from Sulfolobus acidocaldarius DSM 639 (purified, about 95 kDa; EC 3.2.1.1 / amylopullulanase) (Sulfolobus acidocaldarius, UniProt Q4J9M2)", "sequence (Q4J9M2 1-884)": "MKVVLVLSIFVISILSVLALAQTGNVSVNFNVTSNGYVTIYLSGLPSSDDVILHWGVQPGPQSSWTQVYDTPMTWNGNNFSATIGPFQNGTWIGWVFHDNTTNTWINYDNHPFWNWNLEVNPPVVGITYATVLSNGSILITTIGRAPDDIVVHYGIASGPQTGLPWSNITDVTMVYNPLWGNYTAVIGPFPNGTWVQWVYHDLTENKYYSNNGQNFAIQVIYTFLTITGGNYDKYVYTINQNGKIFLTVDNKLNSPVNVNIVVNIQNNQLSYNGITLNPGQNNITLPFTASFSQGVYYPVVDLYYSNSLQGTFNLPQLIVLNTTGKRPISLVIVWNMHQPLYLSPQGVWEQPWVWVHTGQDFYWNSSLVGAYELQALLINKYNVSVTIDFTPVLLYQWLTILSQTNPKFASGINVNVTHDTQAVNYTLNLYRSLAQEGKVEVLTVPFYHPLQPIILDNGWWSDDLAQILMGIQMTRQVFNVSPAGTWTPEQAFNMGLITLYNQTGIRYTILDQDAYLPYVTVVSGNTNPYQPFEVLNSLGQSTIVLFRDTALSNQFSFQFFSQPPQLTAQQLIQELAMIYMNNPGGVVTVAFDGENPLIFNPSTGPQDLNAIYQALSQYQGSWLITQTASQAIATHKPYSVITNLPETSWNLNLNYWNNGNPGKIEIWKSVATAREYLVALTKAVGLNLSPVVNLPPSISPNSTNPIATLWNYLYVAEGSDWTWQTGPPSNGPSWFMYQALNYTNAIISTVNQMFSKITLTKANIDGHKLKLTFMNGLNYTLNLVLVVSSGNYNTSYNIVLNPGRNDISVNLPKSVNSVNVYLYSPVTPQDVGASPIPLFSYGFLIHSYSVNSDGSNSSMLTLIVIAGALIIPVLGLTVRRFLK", "test": "biochemical", "protocol": "In a hermetically sealed tube, 25 μl of solution C was mixed with 25 μl of water and then added to 250 μl of a solution containing 0.1% (w/v) Lintner'starch (Baker), citrate/phosphate buffer (100 mM/200 mM) at various pH values (as described in detail below). The mixture was then incubated for 15 minutes at various temperatures (see below). Incubation was terminated by transferring the tube to an ice/water bath (0° C.).\nThe absorbance was measured at 620 nm (Pharmacia LKB Ultraspec Plus).\nA blank assay was performed by replacing the 50 μl enzyme solution C with water.\nThe relative activity (relative units) was calculated from the standard curve by calculation of the value [(ODb -ODs)/ODb ]×100, and then linearly extrapolating the corresponding volume (μl) from the two closest points of the standard curve.\nThe relative (α-1,4 hydrolytic) activity (%) is defined as the extrapolated volume value (μl), deduced from the standard curve.\nRespective samples of Solution C were obtained and prepared as described above in Example 4 to perform the standard assay.\nThe influence of various metal cations and of EDTA on the α-1,4 hydrolytic activity of the enzyme derived from Sulfolobus acidocaldarius DSM 639 was determined by running the standard assay described above in Example 4 on each of the tubes (samples) in the presence of the additional various metal cations at a final concentration of 2, 5, and 10 mM.", "key": {"[1]": {"settings": "read-out: Relative activity (%)"}}, "data": [{"smiles": "O=C(O)CN(CCN(CC(=O)O)CC(=O)O)CC(=O)O", "note": "[EDTA]", "values": [{"measurement": "α-1,4 hydrolytic activity in the absence of calcium (with EDTA)", "setting": "EDTA 2-10 mM, summary of Table 6", "result": "fully active"}, {"measurement": "activity at 2000 µM", "setting": "[1]", "result": 97, "unit": "%"}, {"measurement": "activity at 5000 µM", "setting": "[1]", "result": 101, "unit": "%"}, {"measurement": "activity at 10000 µM", "setting": "[1]", "result": 98, "unit": "%"}]}]}
